US6413983B1, “Benzopyranyl heterocycle derivatives, process for preparation thereof, and pharmaceutical compositions containing them” (Dongbu Hannong Chemical Co. Ltd., priority 2000, dated 2002)
Like-named read-outs stand apart in the source and are kept apart here.

Assays:
[1] = system: isolated rat aorta constricted with methoxamine; test: Vasodilation effects on isolated aorta of rats (methoxamine-constricted rings); conditions: isolated rat aorta constricted with methoxamine (3 μM); 50% relaxation
Description: Male Sprague-Dawly rats (350-450 g, obtained from the Experimental Animal Team of the Korea Research Institute of Chemical Technology) were knocked unconscious by hitting the occipital region, sacrificed by cervical dislocation, and underwent thoracotomy. After being quickly removed, the thoracic aorta was deprived of the adipose tissue and cut into aortic rings of 3 mm width. The aorta was lightly rubbed with cotton club soaked in a modified Krebs Henseleit buffer (Physiological Salt Solution, PSS) to remove the inner epithelial layer therefrom.
Thereafter, 3×10^−6 M methoxamine was applied to induce an intensive constriction in the vascular smooth muscle. When the vasoconstriction induced by the methoxamine was reached and maintained to a maximum, test compounds and controls were cumulatively added to the organ baths in concentrations of 1, 3, 10 and 30 μM so as to examine the vasodilation effect.
The change rate of constriction by the addition of the drugs compared to the maximal constriction induced by methoxamine was calculated to plot a concentration-relaxation response curve.

[2] = system: isolated rat hearts; test: Cardioprotective activity in isolated ischemic heart models of rats (Langendorff, global ischemia/reperfusion); conditions: for EDP (MmHg): left ventricular end-diastolic pressure after 30 min reperfusion; for LDVP × HR (%): reperfusion double product as % of pretreatment DP, 30 min global ischemia, 30 min reperfusion; for TTC: time to contracture during global ischemia
Protocol: Male Sprague-Dawley rats weighing 300-450 g were anesthetized with sodium pentobarbital (100 mg/kg, i.p.). The tail vein was injected with heparin (1,000 U/kg) and then the trachea was intubated. […] A latex balloon filled with solvent (ethanol: water=1:1 (v/v)) and attached to a metal cannula was placed in the left ventricle through pulmonary vein and connected to a Isotec pressure transducer (H.S.E., Germany) for measurement of left ventricular pressure (LVP). […] Then, baseline contractile function, heart rate (HR), and coronary flow (CF) (extracorporeal electromagnetic flow probe, Narco Bio-System, U.S.A.) were measured. Cardiac contractile function was calculated by subtracting LVEDP from LV peak systolic pressure (LVSP), yielding developed pressure (LVDP). Double product (DP), another important parameter for assessing cardiac performance, was calculated by multiplying HR by LVDP. Throughout the experiment, all these parameters were measured, and calculated before and 10 min after pretreatment with each compound and 30 min after the onset of reperfusion with buffer. Data on reperfusion DP were further expressed as the percentage to pretreatment DP.
We then rendered the hearts globally ischemic by completely shutting off the perfusate for 30 min. Severity of ischemia was determined as the time to contracture (TTC, min) during global ischemia in which the first 5 mmHg increase in EDP was observed. Then, the hearts were reperfused and, 30 min later, contractile function (LVDP, DP) and cumulative reperfusion lactate dehydrogenase (LDH) release were measured. LDH was measured as a sensitive index for loss of cell viability with a kit supplied by Boerhinger Mannheim based on the technique of Wroblewski and LaDue [F. Wroblewski and JS.

[3] = system: ischemic myocardium damage model of anesthetized rats; test: Cardioprotective activity in ischemic heart models of rats (LAD occlusion/reperfusion, anesthetized rats); assay type: in vivo, rat; conditions: rat, in vivo, iv, 0.3 mg/kg
Protocol: After trachetomy, the rats were rendered to respire artificially at a rate of 60/min with a stroke volume of 10 ml/kg. Cannulars were inserted into the fermoral vein and the fermoral artery and used for drug administration and blood pressure measurement, respectively.
In the ischemic myocardial injury models, the body temperature has an important influence on the results. To avoid the change in the body temperature, a body temperature measuring probe was inserted into the rectum of each rat and the body temperature was constantly kept at 37° C. with the aid of a homeothermic blanket control unit.
Afterwards, during testing, a continuous measurement was made of the mean arterial blood pressures and heart rates from the rats. For the measurement of the blood pressure, a pressure transducer, such as that manufactured by Grass Ins., MA, U.S.A., identified as Model Statham P23XL, was used.
The heart rate was measured by a tachometer, such as that manufactured by Gould Inc., Ohio, U.S.A., identified as Biotachometer. In addition, all of the changes occurring were continuously recorded through the Gould 2000 chart recorder, manufactured by Gould Inc.
The left coronary artery was occluded according to the Selye H. method as follows. The rats underwent a left thoracotomy operation for partial opening of the chest and the right-side chest was pressurized by the middle finger of the left hand to push the heart out. Immediately after the left anterior descending coronary artery hereinafter referred to as (LAD) was carefully stitched using a suture needle with 5-0 silk ligature, the heart was then repositioned in the thoracic cavity while both ends of the ligature were situated outside. The opposite ligature ends were passed through a PE tube (PE100, 2.5 cm) and allowed to stand loose for 20 min for stabilization. Via the cannula inserted into the femoral vein, vehicles or drugs were administered into the rats which were rendered to stand for 30 min in order to sufficiently elicit the efficacies of the drugs.
Next, the PE tube which had the doubled strands of the ligature passed therethrough was pushed toward the heart and then, set upright by tightly pulling end regions of the ligature with a hemostatic pincette while pressing the coronary artery.
After the reocclusion of the coronary artery in accordance with the above procedure, the rats were administered with 2 ml of a 1% Evans blue through an intravenous route. Subsequently, an excess of pentobarbital was intravenously injected to kill the rats, after which the heat was removed and then, deprived of the right ventricle and both atria. The left ventricle was cut horizontally to the heart apex into 5 or 6 slices which were weighed. From the surface of each slice, images were input with the aid of a Hi-scope into a computer installed with an image analyzing program (Image Pro Plus). From the images input into the computer, the area of the normal blood stream tissue region which appeared blue in a computer monitor and the area which appeared colorless were measured. The percentage of the colorless area to the total area of each slice was calculated and multiplied by the weight of each slice to determine the area at risk (AAR) of each slice. The AAR obtained from each slice was summed for all slices and the total AAR was divided by the total weight of the left ventricle to yield % AAR, as shown in the following mathematical formula 1:
AAR(%)=(summed AAR for all slices)/(total weight of left ventricle)×100 [Mathematical Formula 1]
During this fixation, 2,3,5-triphenyltetrazolium chloride was reduced into formazan dye by the myocardial dehydrogenase and its cofactor NADH, so that the normal regions of the tissue were colored brick-red. In contrast, the infarct zones of the tissue were deficient in the dehydrogenase and its cofactor, so that no reduction occurred on the 2,3,5-triphenyltetrazolium, allowing the color to remain unchanged.

[4] = system: cerebral cortical neurons; test: Protective activity for neuronal cells against iron-induced damage (LDH release); assay type: cell-based, rat; conditions: 30 μM compound; 50 uM FeSO4, 24 hours; LDH reduction rate vs control
Protocol: From the brains of 17-18 day-old rat embryos, cerebral cortical neurons were isolated and then, cultured at 37° C. for 7-9 days in a 5% CO2 incubator. The cortical cell cultures were washed twice with a minimum essential medium (MEM) to reduce the serum concentration to 0.2% and pre-treated for 30 min with 30 μM of each of test compounds. For the experiments, the test compounds were dissolved in DMSO and diluted in a medium. At this time, the final concentration of DMSO was not allowed to exceed 0.2%. For a control group, only vehicle was applied.
After the pre-treatment with test compounds or vehicle, FeSO4 was added to a final concentration of 50 uM, and the cultures were maintained for 24 hours in a CO2 incubator. During incubation, lactate dehydrogenase (LDH) was released into the medium upon neuronal death by the oxidative toxicity of iron. The extent of neuronal damage was assessed by measuring the amount of LDH released into the media. The protective effect of the compounds of interest on neurons was evaluated by calculating the LDH reduction rate of treatment group compared with that of the control group.

[5] = 10 μM, cumulative reperfusion LDH release

Molecule	IC50 [1] [µM]	LDH (U/g) [2, 5] [U/g]	EDP (MmHg) ([2]; 10 μM)	LDVP × HR (%) ([2]; 10 μM)	TTC ([2]; 10 μM) [min]	LDH (U/g) [2] [U/g]	AAR/LV (%) [3] [%]	IZ/AAR (%) [3] [%]	% Protection [4] [%]
COC(=O)[C@@H]1Cc2ccccc2N1[C@H]1c2cc([N+](=O)[O-])ccc2O[C@](C)(C(OC)OC)[C@@H]1O [Example 6, 1-[(2S, 3R, 4S)-3,4-dihydro-2-dimethoxymethyl-3-hydroxy-2-methyl-6-nitro-2H-1-benzopyran-4-yl]-1H-(2S)-2,3-dihydroindole-2-carboxylic acid methyl ester]	15.6	10.4	21	62.2	24.5	–	–	–	–
CCOC(=O)[C@H]1Cc2cc(OC)ccc2N1[C@H]1c2cc([N+](=O)[O-])ccc2O[C@](C)(C(OC)OC)[C@@H]1O [Example 11, 1-[(2S, 3R, 4S)-3,4-dihydro-2-dimethoxymethyl-3-hydroxy-2-methyl-6-nitro-2H-1-benzopyran-4-yl]-(2R)-2,3-dihydro-1H-5-methoxyindole-2-carboxylic acid ethyl ester]	16.5	–	14.7	66.5	22.9	13.3	38.3	42.1	–
CCOC(=O)[C@H]1Cc2cc(F)ccc2N1[C@H]1c2cc([N+](=O)[O-])ccc2O[C@](C)(C(OC)OC)[C@@H]1O [Example 15, 1-[(2S, 3R,4S)-3,4-dihydro-2-dimethoxymethyl-3-hydroxy-2-methyl-6-nitro-2H-1-benzopyran-4-yl]-(2R)-2,3-dihydro-1H-5-fluoroindole-2-carboxylic acid ethyl ester]	> 30	12.0	2.7	53.3	24.8	–	–	–	–
CCOC(=O)[C@@H]1Cc2cc(Cl)ccc2N1[C@H]1c2cc([N+](=O)[O-])ccc2O[C@](C)(C(OC)OC)[C@@H]1O [Example 20, 1-[(2S, 3R, 4S)-3,4-dihydro-2-dimethoxymethyl-3-hydroxy-2-methyl-6-nitro-2H-1-benzopyran-4-yl]-(2S)-2,3-dihydro-1H-5-chloroindole-2-carboxylic acid ethyl ester]	> 30	–	–	–	–	–	35.4	35.1	69
CCOC(=O)[C@@H]1Cc2cc(OC)ccc2N1[C@@H]1c2cc([N+](=O)[O-])ccc2O[C@@](C)(C(OC)OC)[C@H]1O [Example 35, 1-[(2R, 3S, 4R)-3,4-dihydro-2-dimethoxymethyl-3-hydroxy-2-methyl-6-nitro-2H-1-benzopyran-4-yl]-(2S)-2,3-dihydro-1H-5-methoxyindole-2-carboxylic acid ethyl ester]	> 30	–	19	57.3	25.1	23.2	31.6	37.8	–
CCOC(=O)[C@H]1Cc2cc(OC)ccc2N1[C@@H]1c2cc([N+](=O)[O-])ccc2O[C@@](C)(C(OC)OC)[C@H]1O [Example 36, 1-[(2R, 3S, 4R)-3,4-dihydro-2-dimethoxymethyl-3-hydroxy-2-methyl-6-nitro-2H-1-benzopyran-4-yl]-(2R)-2,3-dihydro-1H-5-methoxyindole-2-carboxylic acid ethyl ester]	> 30	–	23.3	53.1	24.7	18.9	37.5	41.4	–
COC(=O)c1cc2ccccc2n1[C@H]1c2cc([N+](=O)[O-])ccc2O[C@](C)(C(OC)OC)[C@@H]1O [Example 48, 1-[(2S, 3R, 4S)-3,4-dihydro-2-dimethoxymethyl-3-hydroxy-2-methyl-6-nitro-2H-1-benzopyran-4-yl]-1H-indole-2-carboxylic acid methyl ester]	24	16.7	9.5	79.5	22.0	–	–	–	–
COC(=O)[C@H]1CCc2ccccc2N1[C@@H]1c2cc([N+](=O)[O-])ccc2O[C@](C)(C(OC)OC)[C@H]1O [Example 56, 1-[(2S, 3S, 4R)-3,4-dihydro-2-dimethoxymethyl-3-hydroxy-2-methyl-6-nitro-2H-1-benzopyran-4-yl]-(2R)-1,2,3,4-tetrahydro-1H-quinoline-2-carboxylic acid methyl ester]	11.4	18.8	29.0	61.0	22.2	–	–	–	–
(2S, 2aR, 10aS)-[(3,4-b)-2a,10a-dihydro-2-dimethoxymethyl-2-methyl-12-nitro-2H-1-benzopyrano]-[(1,2-d)-10H-indolino]-4-oxomorpholine [Example 62]	> 30	20.5	36.5	67.2	23.1	–	–	–	–
